Experimental data from ChEMBL document CHEMBL1201862, “PubChem BioAssay data set” (2004).
Where “and” joins values, the source holds several entries; their conditions need not be identical. Identical values can stand only once.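 Protocol summary: plate cells (96-well), add compound at 5 concentrations, incubate 48 h, interpolate endpoints linearly. At the GI50, growth is halved.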 Calls of active or inactive are those of the source. Rule as the data show it: active = GI50 up to about 1.1 µM and inactive = higher.

How the values were obtained:
Assay in all cases: inhibition of tumour cell growth, NCI panel, 48 h
[1] = tested on: SR
[2] = tested on: DMS-273
[3] = tested on: A549
[4] = tested on: SNB-75
[5] = tested on: HOP-62
[6] = tested on: OVCAR-5
[7] = tested on: OVCAR-3
[8] = tested on: HCT-15
[9] = tested on: HOP-92
[10] = tested on: SW-620
[11] = tested on: CCRF-CEM
[12] = tested on: OVCAR-4
[13] = tested on: CAKI-1
[14] = tested on: SK-MEL-28
[15] = tested on: A498
[16] = tested on: SNB-19

For `COc1ccc(C(C2=C(C)C(=O)c3ccccc3C2=O)c2ccc(C(C)C)cc(=O)c2O)cc1` (stereo unspecified), the GI50 [1] was 3.29 µM (inactive), the GI50 [2] was 2.23 µM (inactive) and the GI50 [3] was 3.55 µM (inactive). The GI50 [4] was 2.59 µM (inactive), the GI50 [5] was 2.59 µM (inactive) and the GI50 [6] was 2.06 µM (inactive). For the same molecule, the GI50 [7] was 2.68 µM (inactive), the GI50 [8] was 2.58 µM and the GI50 [9] was 3.57 µM (inactive). The GI50 [10] was 6.1 µM (inactive), the GI50 [11] was 3.73 µM (inactive) and the GI50 [12] was 6.49 µM (inactive). For the same molecule, the GI50 [13] was 3.03 µM (inactive).
For `COc1cc(/C=C/C(=O)c2sc(-n3nc(-c4ccccc4)cc3-c3ccccc3)nc2C)ccc1O`, the GI50 [2] was > 100 µM (inactive), the GI50 [3] was > 100 µM (inactive) and the GI50 [4] was 7.36 µM (inactive). The GI50 [5] was > 100 µM (inactive), the GI50 [6] was > 100 µM (inactive) and the GI50 [7] was > 100 µM (inactive). The GI50 [8] was 28.5 µM, the GI50 [9] was 2.47 µM (inactive) and the GI50 [14] was > 100 µM (inactive). For the same molecule, the GI50 [10] was > 100 µM (inactive), the GI50 [11] was > 100 µM (inactive) and the GI50 [13] was 6.64 µM (inactive). For the same molecule, the GI50 [15] was > 100 µM (inactive).
For `OC(c1ccccc1)(c1ccccc1)c1ccccn1`, the GI50 [1] was > 100 µM (inactive), the GI50 [2] was > 100 µM (inactive) and the GI50 [16] was > 100 µM (inactive). The GI50 [3] was > 100 µM (inactive), the GI50 [4] was > 100 µM (inactive) and 63.7 µM (inactive) and the GI50 [5] was > 100 µM (inactive). For the same molecule, the GI50 [6] was > 100 µM (inactive), the GI50 [7] was > 100 µM (inactive) and the GI50 [8] was > 100 µM. The GI50 [9] was > 100 µM (inactive), the GI50 [14] was > 100 µM (inactive) and the GI50 [10] was > 100 µM (inactive). The GI50 [11] was > 100 µM (inactive), the GI50 [12] was > 100 µM (inactive) and the GI50 [13] was > 100 µM (inactive) and 85.7 µM (inactive). The GI50 [15] was > 100 µM (inactive).
`N#CC1(C#N)C2C=CC(c3coc4cccc2c34)C1(C#N)C#N` (stereo unspecified) was tested, and the GI50 [1] was 3.01 µM (inactive), the GI50 [2] was 16.7 µM (inactive) and the GI50 [16] was 18.8 µM (inactive). For the same molecule, the GI50 [3] was 17.9 µM (inactive), the GI50 [4] was 19.4 µM (inactive) and the GI50 [5] was 22.6 µM (inactive). For the same molecule, the GI50 [6] was 17 µM (inactive), the GI50 [7] was 15.7 µM (inactive) and the GI50 [8] was 7.08 µM. For the same molecule, the GI50 [9] was 18 µM (inactive), the GI50 [14] was 3.66 µM (inactive) and the GI50 [10] was 1.61 µM (inactive). The GI50 [11] was 1.11 µM (active), the GI50 [12] was 31.8 µM (inactive) and the GI50 [15] was 20.4 µM (inactive).
`COc1cc(CC(=O)c2cc3c(cc2-c2ccccc2)OCO3)cc(OC)c1OC` was tested, and the GI50 [1] was 19.1 µM (inactive), the GI50 [2] was 40.2 µM (inactive) and the GI50 [16] was 72.3 µM (inactive). For the same molecule, the GI50 [3] was 26.1 µM (inactive), the GI50 [4] was 1.18 µM (inactive) and the GI50 [5] was 79.6 µM (inactive). The GI50 [6] was > 100 µM (inactive), the GI50 [7] was 31 µM (inactive) and the GI50 [8] was 66.5 µM. For the same molecule, the GI50 [9] was < 0.01 µM (active), the GI50 [14] was 58.3 µM (inactive) and the GI50 [10] was 43.4 µM (inactive). The GI50 [11] was 13 µM (inactive), the GI50 [12] was 27.1 µM (inactive) and the GI50 [15] was 33.3 µM (inactive).
For `CCOC(=O)c1cc2c3c(c(O)c(OC)c2s1)N(C(=O)c1cc2c4c(c(O)c(OC)c2s1)N(C(C)=O)CC4)CC3`, the GI50 [2] was 61.8 µM (inactive), the GI50 [16] was > 100 µM (inactive) and the GI50 [3] was > 100 µM (inactive). For the same molecule, the GI50 [4] was 23.4 µM (inactive), the GI50 [5] was 35.6 µM (inactive) and the GI50 [6] was > 100 µM (inactive). The GI50 [7] was 24.4 µM (inactive), the GI50 [9] was 29 µM (inactive) and the GI50 [14] was > 100 µM (inactive). The GI50 [10] was > 100 µM (inactive), the GI50 [11] was > 100 µM (inactive) and the GI50 [12] was 71.6 µM (inactive). The GI50 [13] was > 100 µM (inactive) and the GI50 [15] was 31.2 µM (inactive).
`CCCCCCCCCCCCCCCC(=O)OCC1OC(N2C(=O)/C(=N\NC(N)=S)c3ccc([N+](=O)[O-])cc32)C(OC(C)=O)C1OC(C)=O` (stereo unspecified) was tested, and the GI50 [1] was > 100 µM (inactive), the GI50 [2] was > 100 µM (inactive) and the GI50 [16] was > 100 µM (inactive). The GI50 [3] was 56.2 µM (inactive), the GI50 [4] was > 100 µM (inactive) and the GI50 [5] was > 100 µM (inactive). The GI50 [6] was > 100 µM (inactive), the GI50 [7] was 60.3 µM (inactive) and the GI50 [8] was 86.1 µM. For the same molecule, the GI50 [9] was 93.5 µM (inactive), the GI50 [14] was > 100 µM (inactive) and the GI50 [10] was > 100 µM (inactive). For the same molecule, the GI50 [11] was > 100 µM (inactive), the GI50 [12] was > 100 µM (inactive) and the GI50 [13] was > 100 µM (inactive).
For `O=C1C2=C(c3ccccc31)C(c1ccccc1Cl)N1C(=O)CCSC1=N2` (stereo unspecified), the GI50 [2] was > 100 µM (inactive), the GI50 [16] was > 100 µM (inactive) and the GI50 [3] was > 100 µM (inactive). For the same molecule, the GI50 [4] was 55.2 µM (inactive), the GI50 [5] was > 100 µM (inactive) and the GI50 [6] was > 100 µM (inactive). For the same molecule, the GI50 [7] was > 100 µM (inactive), the GI50 [8] was > 100 µM and the GI50 [9] was 30.1 µM (inactive). For the same molecule, the GI50 [14] was > 100 µM (inactive), the GI50 [10] was > 100 µM (inactive) and the GI50 [11] was > 100 µM (inactive). For the same molecule, the GI50 [12] was 45.4 µM (inactive), the GI50 [13] was > 100 µM (inactive) and the GI50 [15] was > 100 µM (inactive).
In the case of `C=CCSc1ncnc2c1ncn2C1OC(CO)C(O)C1O` (stereo unspecified), the GI50 [1] is reported as > 100 µM (inactive), the GI50 [2] is reported as 11.7 µM (inactive) and the GI50 [16] is reported as > 100 µM (inactive). For the same molecule, the GI50 [3] was > 100 µM (inactive), the GI50 [4] was 65.2 µM (inactive) and the GI50 [5] was 35.1 µM (inactive). For the same molecule, the GI50 [6] was 60.5 µM (inactive), the GI50 [7] was 11.4 µM (inactive) and the GI50 [8] was 7.94 µM. For the same molecule, the GI50 [9] was 9.2 µM (inactive), the GI50 [14] was > 100 µM (inactive) and the GI50 [10] was 14.4 µM (inactive). The GI50 [11] was > 100 µM (inactive), the GI50 [12] was > 100 µM (inactive) and the GI50 [13] was 17.7 µM (inactive). The GI50 [15] was 58.2 µM (inactive).
`Cc1cc2c(=O)cc(-c3ccc(O)cc3)oc2c(C(=O)O)c1C` was tested, and the GI50 [1] was > 100 µM (inactive), the GI50 [2] was > 100 µM (inactive) and the GI50 [16] was > 100 µM (inactive). The GI50 [3] was > 100 µM (inactive), the GI50 [4] was > 100 µM (inactive) and the GI50 [5] was > 100 µM (inactive). For the same molecule, the GI50 [6] was > 100 µM (inactive), the GI50 [7] was > 100 µM (inactive) and the GI50 [8] was > 100 µM. The GI50 [9] was > 100 µM (inactive), the GI50 [14] was > 100 µM (inactive) and the GI50 [10] was > 100 µM (inactive). The GI50 [11] was > 100 µM (inactive), the GI50 [12] was > 100 µM (inactive) and the GI50 [13] was 22 µM (inactive).
`Nc1nc2c3nc(Nc4ccccc4)sc3nc(=S)n2c2sc(Nc3ccccc3)nc12` was tested, and the GI50 [1] was 5.19 µM (inactive), the GI50 [2] was > 100 µM (inactive) and the GI50 [16] was 40.1 µM (inactive). The GI50 [3] was > 100 µM (inactive), the GI50 [4] was 50.8 µM (inactive) and the GI50 [5] was > 100 µM (inactive). The GI50 [8] was > 100 µM, the GI50 [9] was 4.66 µM (inactive) and the GI50 [14] was > 100 µM (inactive). For the same molecule, the GI50 [10] was > 100 µM (inactive), the GI50 [12] was > 100 µM (inactive) and the GI50 [15] was > 100 µM (inactive).
In the case of `Cc1c(C(=O)/C=C/C=C/c2ccccc2)[n+]([O-])c2ccccc2[n+]1[O-]`, the GI50 [2] is reported as 32.2 µM (inactive), the GI50 [16] is reported as 35.5 µM (inactive) and the GI50 [3] is reported as 22.9 µM (inactive). The GI50 [4] was 34.2 µM (inactive), the GI50 [5] was 25.3 µM (inactive) and the GI50 [6] was 66.1 µM (inactive). For the same molecule, the GI50 [7] was 26.1 µM (inactive), the GI50 [8] was 15.2 µM and the GI50 [9] was 18 µM (inactive). The GI50 [14] was 18.9 µM (inactive), the GI50 [10] was 22.4 µM (inactive) and the GI50 [11] was 34 µM (inactive). For the same molecule, the GI50 [12] was 31.2 µM (inactive), the GI50 [13] was 51.8 µM (inactive) and the GI50 [15] was 51.8 µM (inactive).
`CCCCC(C(=O)C(=O)Nc1ccccc1CC)C(=O)C(C)C` (stereo unspecified) was tested, and the GI50 [2] was > 100 µM (inactive), the GI50 [16] was > 100 µM (inactive) and the GI50 [3] was > 100 µM (inactive). The GI50 [6] was > 100 µM (inactive), the GI50 [7] was > 100 µM (inactive) and the GI50 [8] was > 100 µM. For the same molecule, the GI50 [9] was > 100 µM (inactive), the GI50 [10] was > 100 µM (inactive) and the GI50 [11] was > 100 µM (inactive). The GI50 [12] was > 100 µM (inactive), the GI50 [13] was > 100 µM (inactive) and the GI50 [15] was > 100 µM (inactive).
For `CC(C)(C)C1=CC(=C(P(=O)(O)O)P(=O)(O)O)C=C(C(C)(C)C)C1=O`, the GI50 [2] was > 50 µM (inactive), the GI50 [16] was > 50 µM (inactive) and the GI50 [3] was > 50 µM (inactive). For the same molecule, the GI50 [4] was > 50 µM (inactive), the GI50 [5] was > 50 µM (inactive) and the GI50 [6] was > 50 µM (inactive). For the same molecule, the GI50 [7] was > 50 µM (inactive), the GI50 [8] was > 50 µM and the GI50 [9] was > 50 µM (inactive). The GI50 [14] was > 50 µM (inactive), the GI50 [10] was > 50 µM (inactive) and the GI50 [11] was > 50 µM (inactive). The GI50 [12] was > 50 µM (inactive), the GI50 [13] was > 50 µM (inactive) and the GI50 [15] was > 50 µM (inactive).
